Values quoted from earlier work, collected in patent US20170094967A1, “OIL PALM FRUIT APPLICATION METHODS” (Valent BioSciences Corporation, priority 2015, published 2017).

System: oil palms
Settings: applied before harvest directly to the fruit

Row | SMILES | oil yield of oil palm fruit
1 | NCCO/C=C/[C@H](N)C(=O)O (stereo in doubt) [AVG, [S]-trans-2-amino-4-(2-aminoethoxy)-3-butenoic acid] | increases the oil yield
2 | CC1=CC1 [1-MCP, 1-methylcyclopropene] | increases the oil yield
